Laboratory results from patent US8518965B2, “Compositions and methods for treating cancer” (Trustees of Dartmouth College, priority 2009, dated 2013).
Where two headings read alike, the source gives them in different places.

What was measured:
[1] = Solubility in solvents and buffers; type: physicochemical; conditions: for solubility: read-out: Solubility (mg/ml), 25° C.
Method: Characterization of D11B. The solubility of D11B in different solvents was analyzed (Table 1).
(§1) The solubility of D11B in various combinations of solvents was also analyzed. […] For the analysis of co-solvents, stock solutions were prepared by dissolving D11B in a corresponding solvent. Stock solutions of D11B in dimethylsulfoxide (DMSO) were prepared at 25° C., and stock solutions of D11B in PEG-400, CREMOPHOR® EL and Polysorbate 80 were prepared at 100° C. Injection solutions, in water (0.3 mg/ml), were prepared by dropwise addition of the stock solution to a required volume of vigorously stirred hot water (80° C.).
The solubility of D11B×2AH in DMSO, PEG-400, EtOH, and buffer was determined (Table 7).

[2] = tested on: HCT116 human colon cancer xenografts; test: In vivo efficacy, HCT116 xenografts in nude mice; parameters: species or system nude mice (nu/nu genotype); conditions: single i.p. injection
Method: This in vivo anticancer efficacy study was performed on nude mice (nu/nu genotype) bearing HCT116 human colon cancer xenografts. These human tumors grew exponentially following implantation into the flanks of the mice and reached a diameter of 3 mm. Treatment was initiated at that time, with the first day of treatment designated as day 0 for all calculations and plots. […] Mice in the control group, bearing 3 mm diameter tumors, were treated with vehicle alone. After treatment, tumor sizes were measured by caliper every day. Daily measurement of the tumor diameters (d1, d2) in two orthogonal directions was used to calculate the tumor volume (tumor volume=π/6{(d1+d2)/2}^3) using the approximation that the tumors were spherical. The values of time (days) required to grow the tumor to the size of 1,000 cu. mm after various treatments and tumor growth delay percentage were calculated for evaluating the treatment effects. Survival times and tumor inhibitory effects on day 20 after treatment were also observed and recorded.

[3] = tested on: NCI/ADR-RES human breast cancer cells; test: Colony formation assay, NCI/ADR-RES cells; type: cell-based; conditions: 72 hours with compound, colonies counted after 14 days
Method: NCI/ADR-RES human breast cancer cells (500 cells), HCT116 human colon cancer cells (400 cells) or SF 295 human glioblastoma cells (1000 cells) were plated in 60 mm Petri dishes containing 2.7 ml of medium (modified McCoy's 5a medium containing 10% fetal bovine serum and 100 units/ml penicillin and 100 μg/ml streptomycin). The cells were incubated in a CO2 incubator at 37° C. for 5 hours for attachment to the bottom of Petri dishes. Compounds were prepared fresh in medium at ten times the final concentration, and then 0.3 ml of this stock solution was added to the 2.7 ml of medium in the dish. The cells were then incubated with compounds for 72 hours at 37° C. At the end of incubation, the compound-containing media were decanted, the dishes were rinsed with 4 ml of Hank's Balance Salt Solution (HBSS), 5 ml of fresh medium was added, and the dishes were returned to the incubator for colony formation. The cell colonies were counted using a colony counter after incubation for 14 days for NCI/ADR-RES cells and 10 days for HCT116 cells and SF 295 cells. Cell survival was calculated and the IC50 values (the drug concentration producing 50% inhibition of colony formation) were determined for each tested compound.

[4] = tested on: SF 295 human glioblastoma xenografts; test: In vivo efficacy, SF 295 xenografts in nude mice; conditions: D11B 382 mg/kg single i.p. injection
Method: In vivo anticancer efficacy studies were performed on nude mice (nu/nu genotype) bearing SF 295 human glioblastoma xenografts. […]. Treatment was initiated at that time, with the first day of treatment designated as day 0 for all calculations and plots. […] Compound doses were 382 mg/kg for D11B, 212 mg/kg for D15B, 5 mg/kg for D25B, and 10.6 mg/kg for D35B. Mice in the control group bearing 3 mm diameter tumors was treated with vehicle alone. After treatment, tumor sizes were measured by caliper every day. Daily measurements of the tumor diameters (d1, d2) in two orthogonal directions was used to calculate the tumor volume (tumor volume=π/6{(d1+d2)/2}^3) using the approximation that the tumors were spherical. The values of time (days) required to grow the tumor to twice their initial size after various treatments was calculated as tumor doubling time (TDT) for evaluating the treatment effects. Survival times and curative effects after treatment were also observed and recorded.

[5] = State of stock and injection solutions in water + co-solvents; type: physicochemical
Method: as §1
Additional solubility determinations were carried out with D11B×2AH in water+co-solvents. For this analysis, stock solutions were prepared by dissolving D11B×2AH in a corresponding solvent. Stock solutions of D11B×2AH in DMSO were prepared at 25° C. and stock solutions of D11B×2AH in PEG-400 were prepared at 100° C.
Injection solutions in water (0.3 mg/ml) were prepared by dropwise addition of each stock solution to a required volume of vigorously stirred water.

c1ccc2c(Nc3ccc(Oc4ccc(Nc5c6ccccc6nc6ccccc56)cc4)cc3)c3ccccc3nc2c1 [Compound D11B]
Solubility in 5% dextrose in water ([1]; 5% dextrose in water): negligible
solubility ([1]; AcOH, 25 °C, organic solvent or mixture, AcOH): ~0.01 mg/mL
solubility ([1]; AcOH-H2O (1-1), 25 °C, aqueous with cosolvent or surfactant or cyclodextrin, AcOH—H2O (1-1)): > 1.1 mg/mL
solubility ([1]; AcOH-H2O (9-1), 25 °C, organic solvent or mixture, AcOH—H2O (9-1)): > 13 mg/mL
solubility ([1]; CHCl3, 25 °C, organic solvent or mixture, CHCl3): 0.12 mg/mL
solubility ([1]; DMF, 25 °C, organic solvent or mixture, DMF): ~20 mg/mL
solubility ([1]; DMSO, 25 °C, organic solvent or mixture, DMSO): ~100 mg/mL
Solubility (mg/ml), 25° C. ([1]; H2O): negligible
solubility ([1]; MeOH, 25 °C, organic solvent or mixture, MeOH): ~1 mg/mL
solubility ([1]; Na2HPO4-citric acid buffer, 25 °C, pH 4, aqueous buffer, Na2HPO4-citric acid buffer (pH = 4), first entry): < 0.1 mg/mL
solubility ([1]; Na2HPO4-citric acid buffer, 25 °C, pH 4, aqueous buffer, Na2HPO4-citric acid buffer (pH = 4), second entry): < 0.1 mg/mL
solubility ([1]; PEG-400, 25 °C, organic solvent or mixture, PEG-400, heating to 100° C. was required): ~12 mg/mL
Solubility in saline ([1]; saline (0.9% NaCl in water)): negligible
Mean survival time ([2]; control group 19.7 days): 40.5 days
Tumor growth delay percentage ([2]; time for growth up to the tumor volume of 1,000 cu. mm): 131%
Inhibition ratio ([2]; tumor growth on day 20 after drug administration): 4.65
IC50 [3]: 1310 nM
Curative effect [4]: one mouse was even cured
Ratio of TDTs (D11B treated over control) [4]: 9.8
TDT (tumor doubling time) ([4]; control group 2.5 days): 24.5 days
Mean survival time ([4]; control group 40.5 days): ≥ 58.67 days
State of the stock solution ([5]; D11B in DMSO, 20 mg/ml): clear
State of the stock solution ([5]; D11B in DMSO, 30 mg/ml): clear
State of the stock solution ([5]; D11B in DMSO, 40.5 mg/ml): clear
State of the stock solution ([5]; D11B in DMSO, 50 mg/ml): clear
State of the stock solution ([5]; D11B in DMSO, 70 mg/ml): clear
State of the stock solution ([5]; D11B in DMSO, 100 mg/ml): clear
State of the injection solution ([5]; D11B in H2O-CREMOPHOR EL, 0.3 mg/ml, CREMOPHOR EL 1 wt. %): clear
State of the injection solution ([5]; D11B in H2O-PEG-400 0.3 mg/ml, stock 12 mg/ml, PEG-400 2.82 wt. %): clear^b
State of the injection solution ([5]; D11B in H2O-PEG-400 0.3 mg/ml, stock 20 mg/ml, PEG-400 1.7 wt. %): clear^a
State of the injection solution ([5]; D11B in H2O-Polysorbate 80, 0.3 mg/ml, Polysorbate 80 1 wt. %): clear
State of the injection solution ([5]; D11B in H2O—DMSO 0.3 mg/ml, stock 20 mg/ml, DMSO 1.65 wt. %): clear
State of the injection solution ([5]; D11B in H2O—DMSO 0.3 mg/ml, stock 30 mg/ml, DMSO 1.1 wt. %): clear
State of the injection solution ([5]; D11B in H2O—DMSO 0.3 mg/ml, stock 40.5 mg/ml, DMSO 0.83 wt. %): clear
State of the injection solution ([5]; D11B in H2O—DMSO 0.3 mg/ml, stock 50 mg/ml, DMSO 0.66 wt. %): clear
State of the injection solution ([5]; D11B in H2O—DMSO 0.3 mg/ml, stock 70 mg/ml, DMSO 0.47 wt. %): clear
State of the injection solution ([5]; D11B in H2O—DMSO 0.3 mg/ml, stock 100 mg/ml, DMSO 0.33 wt. %): clear
State of the stock solution ([5]; D11B in PEG-400, 12 mg/ml): clear
State of the stock solution ([5]; D11B in PEG-400, 20 mg/ml): gel
State of the stock solution ([5]; D11B in PEG-400, 40 mg/ml): gel
State of the stock solution ([5]; D11B in Polysorbate 80, 32.25 mg/ml): clear
